The values that follow come from patent US6653333B2, “Remedies or preventives for digestive diseases containing diaminotrifluoromethylpyridine derivatives” (Ishihara Sangyo Kaisha, Ltd., priority 2000, dated 2003).

Experiment [1] has as its system TNBS induced rat Crohn's disease model. The experiment in a line: Trinitrobenzene Sulfonic Acid (TNBS) induced rat Crohn's disease model. It is filed as in vivo. Conditions: TNBS rats. The protocol: The therapeutic effect of the compound 1 on TNBS induced rat Crohn's disease model was studied by the following method.
(1) SD male rats (12 weeks old) were anesthetized with Nembutal and their abdomen was opened up, a TNBS solution (TNBS 160 mg/ml ethanol) was administered in 1 ml/kg in the colon located 10 cm below the ileocecum, and their abdomen was closed to prepare models, which were divided into a non-treated group and a group treated with the compound 1, each group consisting of 6 rats. No such a treatment was carried out for normal group rats. After preparation of the models, a drug formulation of the compound 1 of Test Example 1 diluted with distilled water was perorally administered to rats of the group treated with the compound 1 once a day for 7 days in a dosage of 10 mg/kg/day as calculated as anhydride of the compound 1. After completion of administration period, visual change, small intestine weight and mucosal myeloperoxidase activity in small intestine (mucosal MPO activity) were observed or measured. The visual change was evaluated by digitizing and compiling various changes. The ratio of the small intestine weight to the body weight was also calculated from the small intestine weight and the body weight.

The subject of experiment [2] is rat sodium dextran sulfate (DSS) induced ulcerative colitis model. The experiment in a line: rat sodium dextran sulfate (DSS) induced ulcerative colitis model. The format is in vivo. The conditions noted are these: DSS rats. From the text: As an ulcerative colitis model, trinitrobenzenesulfonic acid (TNB) is usually used, but as a drug effect evaluation system to accomplish the present invention, a rat sodium dextran sulfate (DSS) induced ulcerative colitis model was used. It has been well known that said model is considered as an experimental model similar to human ulcerative colitis from many viewpoints such as inhibision of weight gain, presence or absence of bloody stool, symptoms of e.g. anemia and formation of erosion at the large intestine, and no formation of lesion in the small intestine [FOLIA PHARMACOLOGICA JAPONICA vol. 105, p. 145-152(1995)]. A therapeutic effect of N-(2-ethylsulfonylamino-5-trifluoromethyl-3-pyridyl)cyclohexanecarboxamide sodium salt monohydrate (hereinafter referred to as compound 1) over the test system was examined.
The compound 1 was used as a drug formulation. The formulation composition (content per one vial) was as follows.
A 3% aqueous solution of sodium dextran sulfate (DSS: manufactured by Wako Pure Chemical Industries, Ltd.) was put in a drinking bottle, and rats [Crj: CD(SD), male, Charles River Japan, 7 weeks old when subjected to the test] were made to drink the solution freely for 11 days to cause colitis. After eleven days, rats which satisfied selection standards (among rats which discharged bloody stool continuously for at least two days including the selection day, ones having a weight loss at the selection day of less than 20 g as compared with the weight on the previous day and having a hemoglobin concentration of at least 12 g/dl) were selected, and divided into groups (ten rats/group) so that there would be no difference in the average weight among groups.
With respect to a non-treated group and groups treated with the compound 1, the 3% aqueous solution was changed to a 1% DSS aqueous solution at the day of division, and the rats were made to drink the solution freely for 14 days. Further, to the rats in the groups treated with the compound 1, the compound 1 was perorally administered once a day for 14 days from the day of division by means of a peroral sonde (dosage: 10 ml/kg). To the rats in the non-treated group and a normal group, distilled water for injection (manufactured by Otsuka Pharmaceutical Co., Ltd.) alone was perorally administered similarly. Here, the normal group rats were made to drink distilled water for injection freely instead of the DSS aqueous solution from initiation of the test to the day of anatomy.
A 10 mg/ml aqueous solution of the compound 1 was prepared by using distilled water for injection (manufactured by Otsuka Pharmaceutical Co., Ltd.) and administered to the rats in a desired dosage.
Immediately after collection of blood, the large intestine (colon and rectum) was excised, and its length was measured by means of a ruler in a sufficiently relaxed state.
Immediately after the measurement, a fixing liquid was injected into the intestine, and the intestine was temporarily fixed for at least 1 hour in such a state that the lumen was approximately uniformly expanded. Then, the intestinal canal was dissected along the mesenterium adhered portion, and the intestine was completely fixed in an expanded state in a 10% neutral buffering formalin aqueous solution for at least one week. The intestine was washed with running water for about 5 minutes, and further washed with purified water three times, and then immersed in a 3% aqueous acetic acid solution for about 5 minutes as a pretreatment. Then, the intestine was immersed in a 1% Alcian blue (manufactured by Nacalai Tesque) (dissolved in a 3% aqueous acetic acid solution) and dyed for about 20 minutes, and then washed with a 3% aqueous acetic acid solution from 4 to 5 times until elution of Alcian blue disappeared. […]

With `CCS(=O)(=O)Nc1ncc(C(F)(F)F)cc1NC(=O)C1CCCCC1.O.[Na]` [compound 1, N-(2-ethylsulfonylamino-5-trifluoromethyl-3-pyridyl)cyclohexanecarboxamide sodium salt monohydrate], in experiment [1] (10 mg/kg/day perorally for 7 days), the “Inflammatory reaction and tissue impairment in the small intestine” value is “the inflammatory reaction and tissue impairment in the small intestine were decreased”. Further, the “Ratio of small intestine to body weight (Mean)” value in experiment [1] (10 mg/kg/day perorally once a day for 7 days, non-treated 0.0065, normal 0.0030) was 0.0042. Further, the “Small intestine weight (Mean)” value in experiment [1] (10 mg/kg/day perorally once a day for 7 days, non-treated 2.18, normal 1.11) is given as 1.63. Further, the “Visual score (Mean)” value in experiment [1] (10 mg/kg/day perorally once a day for 7 days, non-treated 7.8, normal 1.5) is 4.2. In experiment [1] (10 mg/kg/day perorally once a day for 7 days, non-treated 8.93, normal 0.48), the “Mucosal MPO activity (Mean)” value was found to be 0.89. Further, in experiment [2] (1 mg/kg/day perorally once a day for 14 days), the “Erosion suppression rate (large intestine erosion area vs non-treated group)” value was determined as 45%. For the same compound, the “Erosion suppression rate (large intestine erosion area vs non-treated group)” value in experiment [2] (10 mg/kg/day perorally once a day for 14 days) amounted to 56%. Besides, in experiment [2] (100 mg/kg/day perorally once a day for 14 days), the “Erosion suppression rate (large intestine erosion area vs non-treated group)” value was determined as 62%. Further, in experiment [2] (peroral 14 days), the “Anemia as a result of melena due to the erosion” value is “decreases anemia”, the “Histopathological study: inflammation at the submucosa in the erosion formed region” value is recorded as “remarkable decrease of inflammation at the submucosa”, the “Histopathological study: mucosal tissue reconstruction” value was “normal tissue reconstruction by regeneration of the mucosa took place” and the “Length of large intestine: intestine wall hyperplasia” value is “decreases intestine wall hyperplasia”.
